These results are taken from ChEMBL document CHEMBL4732144, “Discovery of a true bivalent dopamine D receptor agonist” (Eur J Med Chem, 2021).

The source made the active and inactive calls. The rule behind the calls is not given here.

The target of experiment [1] is T1, D(2) dopamine receptor (Homo sapiens, UniProt P14416). In words: Displacement of [3H]raclopride from human D2R isoform 2 stably expressed in HEK293 cell membranes measured after 1 hr by liquid scintillation counting method. On the set-up: species or system Membrane. (In general: Loss of bound radioactivity is the signal in a displacement assay; it reports binding, not function.)
T1 sequence (P14416 whole entry, canonical isoform): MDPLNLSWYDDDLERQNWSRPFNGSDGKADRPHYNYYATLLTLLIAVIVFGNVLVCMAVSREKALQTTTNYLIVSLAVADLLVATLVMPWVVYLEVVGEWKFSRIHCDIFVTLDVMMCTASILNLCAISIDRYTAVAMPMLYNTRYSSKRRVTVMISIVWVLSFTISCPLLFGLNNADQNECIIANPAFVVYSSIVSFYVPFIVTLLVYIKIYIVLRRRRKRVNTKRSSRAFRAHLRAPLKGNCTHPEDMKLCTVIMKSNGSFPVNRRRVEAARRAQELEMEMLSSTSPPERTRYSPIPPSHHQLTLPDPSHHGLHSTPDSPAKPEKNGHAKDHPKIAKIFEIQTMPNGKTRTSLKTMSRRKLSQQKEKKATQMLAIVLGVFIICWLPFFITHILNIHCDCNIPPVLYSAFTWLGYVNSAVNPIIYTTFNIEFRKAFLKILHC

In experiment [2] the target is T1, D(2) dopamine receptor. In words: Agonist activity at human D2R isoform 2 stably expressed in HEK293 cells assessed as inhibition of forskolin-induced increase of cAMP accumulation preincubated for 10 mins followed by forskolin addition by Glosensor cAMP reagent based luminescence assay. It counts as functional, cell-based. A general note: Changes in cAMP serve as a functional read-out for many G protein-coupled receptors.

The target in experiment [3] is T1, D(2) dopamine receptor. In words: Displacement of [3H]raclopride from human D2R isoform 2 stably expressed in HEK293 cell membranes at 1 uM measured after 1 hr by liquid scintillation counting method. The following applies: Membrane, filed as agonist.
For experiment [4], the target named is T1, D(2) dopamine receptor. Description: Displacement of [3H]raclopride from human D2R isoform 2 stably expressed in HEK293 cell membranes measured after 1 hr by liquid scintillation counting method relative to IndAlk Ki. The conditions noted are these: Membrane.
Experiment [5] concerns the target T1, D(2) dopamine receptor. Description: Agonist activity at human D2R isoform 2 stably expressed in HEK293 cells assessed as inhibition of forskolin-induced increase of cAMP accumulation preincubated for 10 mins followed by forskolin addition by Glosensor cAMP reagent based luminescence assay relative to IndAlk EC50. It counts as functional, cell-based.
The target of experiment [6] is T1, D(2) dopamine receptor. In words: Displacement of [3H]raclopride from human D2R isoform 2 stably expressed in HEK293 cell membranes measured after 1 hr by liquid scintillation counting method relative to IndBipAlk Ki. The conditions noted are these: Membrane.
Experiment [7] concerns the target T1, D(2) dopamine receptor. In words: Agonist activity at human D2R isoform 2 stably expressed in HEK293 cells assessed as inhibition of forskolin-induced increase of cAMP accumulation preincubated for 10 mins followed by forskolin addition by Glosensor cAMP reagent based luminescence assay relative to IndBipAlk EC50. It counts as functional, cell-based.

In the case of `C#CCCCCN(CCC)C1Cc2ccccc2C1`, the inhibitory constant (Ki) in experiment [1] was 189 nM. Also, the EC50 in experiment [2] was found to be 3.4 nM.

On to `CCCN(CCCCc1cn(CCOCCOCCOCCOCCOCCn2cc(CCCCN(CCC)C3Cc4ccccc4C3)nn2)nn1)C1Cc2ccccc2C1`, for which the inhibition entry in experiment [3] is “Active”. This compound yielded a Ki in experiment [1] of 48 nM. The Ratio Ki in experiment [4] came out at 3.9. Besides, in experiment [2], the EC50 is 3.2 nM. For the same compound, in experiment [5], the Ratio EC50 is 1.1.

Regarding `CCCN(CCCCNC(=O)c1ccc(-c2ccc(OCc3cn(CCOCCOCCOCCn4cc(COc5ccc(-c6ccc(C(=O)NCCCCN(CCC)C7Cc8ccccc8C7)cc6)cc5)nn4)nn3)cc2)cc1)C1Cc2ccccc2C1`, in experiment [3], the inhibition entry is “Active”. The Ratio Ki in experiment [6] was found to be 3.6. The Ratio EC50 in experiment [7] came to 1.1. Besides, the Ki in experiment [1] is 270 nM. Moreover, the EC50 in experiment [2] was 292 nM.

`CCCN(CCCCNC(=O)c1ccc(-c2ccc(OCc3cn(CCOCCOCCOCCOCCOCCn4cc(COc5ccc(-c6ccc(C(=O)NCCCCN(CCC)C7Cc8ccccc8C7)cc6)cc5)nn4)nn3)cc2)cc1)C1Cc2ccccc2C1` had an inhibition in experiment [3] of over 80%. For the same compound, the Ratio Ki in experiment [6] stood at 16.4. Also, the Ratio EC50 in experiment [7] stood at 4.9. Besides, the affinity in experiment [1], expressed as Ki, was 59 nM. In experiment [2], the half-maximal effective concentration (EC50) turned out to be 65 nM.

As to `CCCN(CCCCc1cn(CCOCCOCCOCCOCCn2cc(CCCCN(CCC)C3Cc4ccccc4C3)nn2)nn1)C1Cc2ccccc2C1`, in experiment [3], the inhibition entry was “Active”. In addition, the Ki in experiment [1] came to 66 nM. Besides, in experiment [4], the Ratio Ki came out at 2.9. Besides, the EC50 in experiment [2] was determined as 9.4 nM. In addition, the Ratio EC50 in experiment [5] was found to be 0.4.

On to `CCCN(CCCCc1cn(CCOCCOCCOCCn2cc(CCCCN(CCC)C3Cc4ccccc4C3)nn2)nn1)C1Cc2ccccc2C1`, for which the inhibition entry in experiment [3] was “Active”. In experiment [1], this compound registered a Ki of 73 nM. Moreover, the Ratio Ki in experiment [4] came to 2.6. Further, the EC50 in experiment [2] came out at 7.2 nM. For the same compound, the Ratio EC50 in experiment [5] turned out to be 0.5.

On to `CCCN(CCCCNC(=O)c1ccc(-c2ccc(OCc3cn(CCOCCOCCOCCOCCn4cc(COc5ccc(-c6ccc(C(=O)NCCCCN(CCC)C7Cc8ccccc8C7)cc6)cc5)nn4)nn3)cc2)cc1)C1Cc2ccccc2C1`, for which the inhibition entry in experiment [3] is “Active”. Further, in experiment [6], the Ratio Ki turned out to be 3.9. The Ratio EC50 in experiment [7] stood at 0.6. In experiment [1], this compound registered an inhibitory constant (Ki) of 250 nM. Moreover, the EC50 in experiment [2] was 542 nM.

As to `C#CCOc1ccc(-c2ccc(C(=O)NCCCCN(CCC)C3Cc4ccccc4C3)cc2)cc1`, the inhibition constant (Ki) in experiment [1] was 970 nM. Moreover, in experiment [2], the EC50 was found to be 321 nM.

One may read the Ki as a measure of affinity in units of concentration, obtained from inhibition or displacement. Read a low Ki as a stronger hold on the target. Usually EC50 stands for the concentration needed to bring the measured effect to its halfway point. In general, inhibition refers to the relative decrease from the control value, in per cent.
